# Source: US20100216661A1, “Diagnostic Assay” (priority 2007, published 2010)
# How the values were obtained:
# [1] = test system: anti-Fy^b monoclonal antibody (LM447); assay: LiquiChip Ni-NTA microsphere bead assay (Luminex 100), anti-Fy^b; type: binding, Murine; conditions: FIG. 11; peptide with C-terminal 6 Histidine tag; Luminex 100 Analyser
# Experimental: (§1) Further confirmation that the peptide mimotopes can specifically bind antibodies raised to native blood group antigens was achieved following the immobilisation of peptide mimotopes onto polystyrene LiquiChip Ni-NTA microsphere beads (Qiagen).
# (§2) Peptide mimotopes (e.g. Fyb16; RhD12) were synthesised with a C-terminal tag consisting of 6 Histidine amino acids. Stock solutions (4 μg/ml) of the 6×His tagged peptide mimotopes were prepared in PBS/0.1% BSA. The peptides were immobilised onto the beads using the Ni-NTA groups attached to the surface of the beads, as follows. A 50 μl volume of a 4 μg/ml peptide stock (Fyb16 or RhD12) was mixed with an equal volume of LiquiChip Ni-NTA beads (Bead 50 or Bead 52, respectively). Following incubation with mixing at 4° C. overnight, the Bead/peptide mixture was diluted with 900 μl of PBS/0.1% BSA. The Bead/peptide mixture was vortexed for 2 minutes and then a 10 μl volume was aliquoted into the well of a 96-well, round-bottomed. ELISA plate (Nunc). […] Confirmation of bound monoclonal antibody was determined by the detection of a phycoerythrin fluorochrome signal. The intensity of the signal equates to the quantity of monoclonal antibody bound to the immobilised peptide mimotope.
# [2] = test system: anti-Fy^b monoclonal antibody (LM447); assay: Modified gel agglutination assay with superparamagnetic TALON beads, anti-Fy^b; type: binding, Murine; conditions: FIG. 14; His-tagged peptide; TALON Dynabeads; NaCl gel card with sheep anti-mouse IgG; read visually; anti-RhD T27 as comparison chamber
# Experimental: (§3) The ability of peptide mimotopes to specifically bind antibodies was further tested using superparamagnetic polystyrene beads (TALON Dynabeads; Invitrogen) in a modified gel agglutination assay.
# (§4) A 50 μl volume of the magnetic beads was added to 700 μl of TBS (50 mM Tris-HCl pH7.5; 150 mM NaCl). Following mixing for 5 minutes at room temperature, the magnetic beads were isolated using a Magnetic Particle Concentrator (Invitrogen). The supernatant was discarded and the beads were washed for 5 minutes in 700 μl of TBS. The beads were again separated from the buffer using the MPC magnet, and then resuspended in 700 μl of TBS. Peptide mimotopes (e.g. Fyb16; RhD12) were synthesised with a C-terminal tag consisting of 6 Histidine amino acids. Stock solutions (100 μg/ml) of the 6×His tagged peptide mimotopes were prepared in PBS.
# To test the binding of a murine monoclonal antibody (e.g. LM447: anti-Fy^b monoclonal antibody), a 1 μl volume of sheep anti-mouse IgG is first added to the reaction chamber of an NaCl gel card and allowed to equilibrate with the gel matrix for 10 minutes at room temperature, prior to the addition of a 50 μl volume of diluted TALON beads, a 50 μl volume of diluted His-tagged peptide mimotope (e.g. Fyb16) and 100 μl of the test murine monoclonal antibody (e.g. LM447: anti-Fy^b). […] Again the reaction was read visually.
# [3] = test system: anti-RhD monoclonal antibody (T27); assay: LiquiChip Ni-NTA microsphere bead assay (Luminex 100), anti-RhD; type: binding, Human; conditions: FIG. 12; peptide with C-terminal 6 Histidine tag; Luminex 100 Analyser
# Experimental: as §1, §2
# [4] = test system: anti-RhD monoclonal antibody (T27); assay: Modified gel agglutination assay with superparamagnetic TALON beads, anti-RhD; type: binding, Human; conditions: FIG. 13; His-tagged peptide; TALON Dynabeads; NaCl gel card; read visually; anti-Fy^b LM447 as comparison chamber
# Experimental: as §3, §4
# A 50 μl volume of diluted TALON beads was placed in the reaction chamber of an NaCl gel card (ID Microtyping System; Diamed), together with a 50 μl volume of diluted His-tagged peptide mimotope (e.g. RhD12) and 100 μl of test human monoclonal antibody (e.g. T27: anti-RhD). The gel card was incubated at 37° C. for 1 hour in an Incubator-ID (DiaMed). Following incubation, the card was centrifuged for 10 minutes in an ID Centrifuge 24S (DiaMed). Antibody-positive reactions are visualised by a layer of beads upon the surface of the gel matrix. […]
Substance,Binding of anti-Fy^b antibody LM447 to peptide immobilised on LiquiChip Ni-NTA microsphere beads (phycoerythrin signal) [1],"Binding of anti-Fy^b antibody LM447 to peptide on superparamagnetic polystyrene beads, modified gel agglutination assay [2]",Binding of anti-RhD antibody T27 to peptide immobilised on LiquiChip Ni-NTA microsphere beads (phycoerythrin signal) [3],"Binding of anti-RhD antibody T27 to peptide on superparamagnetic polystyrene beads, modified gel agglutination assay [4]"
FQPNPPPSFAAP [Fyb16],specific binding,specific binding,,
"RhD12: RhD peptide mimotope, Table 4 (HQNPWLLWPRGF)",,,specific binding,specific binding
